Earlier results as cited in PMC12623819 (Scientific Reports, 2025).

Key:
[1] = test system: nectin-4-expressing cells; conditions: in vitro
[2] = test system: cell surface-expressed nectin-4

enfortumab vedotin: ADC comprising a human nectin-4 antibody conjugated to the microtubule-disrupting agent MMAE
induction of cell death [1]: induce cell death in a dose-dependent manner | binding to cell surface-expressed nectin-4 [2]: high affinity
